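Values below derive from 48-hour exposures of cells grown in 96-well plates, with endpoints linearly interpolated between the two concentrations bracketing the appropriate inhibition level. GI50 = concentration required for 50% inhibition of growth. Definition used: TGI = concentration required for complete inhibition of growth.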

For the experiment, the system named is MDA-MB-468 breast. Kind of experiment: NCI tumour cell line growth inhibition, 48 h.
With `CC(=O)c1ccc2c(c1)N(CCCN1CCN(CCO)CC1)c1ccccc1S2`, the GI50 is 1670 nM and the TGI is 3.21 µM.
The corresponding values for `COc1ccc(C2=NC(=O)NC2c2ccc(OC)cc2)cc1` (stereo not drawn) are 4710 nM and 43.7 µM.
The corresponding values for `COc1cc(F)ccc1-c1cc(Nc2cc(CS(C)(=N)=O)ccn2)ncc1F` (stereo not drawn) are 91.5 nM and 0.445 µM.
The corresponding values for `CN(Cc1ccc(F)cc1)c1ccc(CO)c(Cl)c1` are 58 nM and 0.207 µM.
For `CCN1[C@@H](C(=O)NC23CCC(C(=O)O)(CC2)CC3)[C@H](c2cccc(Cl)c2F)[C@]2(C(=O)Nc3cc(Cl)ccc32)C12CCCCC2`, the GI50 was 2180 nM and the TGI worked out at 6.68 µM.
The corresponding values for `CCCN(CCC)c1ccc(C=O)c(Cl)c1` are 53.8 nM and 0.243 µM.
The corresponding values for `Cc1ccc2sc3c(c2c1)OC(N)=C(C#N)C3c1cccc(F)c1` (stereo not drawn) are 225 nM and 0.724 µM.
For `Cc1ccc(S(=O)(=O)c2nc(-c3ccccc3)oc2S(C)(=O)=O)cc1`, the GI50 was 1770 nM and the TGI came to 3.84 µM.
The corresponding values for `C=C1C(=O)O[C@H]2[C@H]1CC/C(COC(=O)N[C@H]1C[C@H](O[C@H]3C[C@](O)(C(=O)CO)Cc4c(O)c5c(c(O)c43)C(=O)c3c(OC)cccc3C5=O)O[C@@H](C)[C@H]1O)=C\CC[C@@]1(C)O[C@@H]21` are 793 nM and 2.04 µM.
The corresponding values for `O=C(CC1(O)C(=O)Nc2ccc(F)cc21)c1ccc(C(=O)NCC2CCC3(CC2)OOC2(CCCCC2)OO3)cc1` (stereo not drawn) are 4540 nM and 21.6 µM.
The corresponding values for `CC(C)(C)[Si](C)(C)OC1[C@@H](CNC(N)=O)O[C@@H](n2cnc3c(NC(=O)Nc4ccccc4)ncnc32)[C@H]1O[Si](C)(C)C(C)(C)C` (stereo partly drawn) are 2150 nM and 8.23 µM.
With `Cc1cc(NCc2cc(Nc3ccnc4cc(Cl)ccc34)ccc2F)nc(N2CCOCC2)n1`, the GI50 is 1940 nM and the TGI is 5.64 µM.
In the case of `COc1cc([C@@H]2c3cc4c(cc3[C@H](OC(C)=O)[C@H]3COC(=O)[C@@H]23)OCO4)cc(OC)c1OC`, the GI50 is 293 nM and the TGI was 5.45 µM.
As to `COc1cc(OCc2cccc(-c3ccccc3)c2C)cc(OC)c1CN1CCCCC1C(=O)NCCOCCOCCN` (stereo not drawn), the GI50 is 1700 nM and the TGI is 3.43 µM.
The corresponding values for `COc1cc(C2=NN(C(C)=O)C(c3cc(OC)c(OC)c(OC)c3)C2)ccc1O` (stereo not drawn) are 265 nM and 3.61 µM.
The corresponding values for `COc1ccc2[nH]cc(-c3cc(N)n4nc(-c5c[nH]c6ccc(OC)cc56)cc4n3)c2c1` are 1730 nM and 3.75 µM.
Take `c1ccc(-c2nc3n(c2-c2ccc4c(c2)OCO4)CCC3)nc1`: the GI50 is 5810 nM and the TGI was 17 µM.
The corresponding values for `C=C1C(=O)O[C@H]2[C@H]1CC/C(COC(=O)NCc1ccc(Cn3c(=O)sn(CCCCC)c3=O)cc1)=C\CC[C@@]1(C)O[C@@H]21` are 1190 nM and 2.64 µM.
The corresponding values for `CCCC1(CN2c3ccccc3Sc3ccc(Cl)cc32)CCN(CC)C1` (stereo not drawn) are 1600 nM and 3.14 µM.

Source of the values: PubChem BioAssay (NCI).
